Assay results as given in the OPERA property sets (Mansouri et al. 2018).

Conditions: not given

Row | Structure (SMILES) | ready biodegradability | boiling point | melting point | log10 Henry constant (atm·m³/mol) | log10 vapour pressure (mmHg) | log10 Koc (L/kg) | log10 biodegradation half-life (days) | log10 Koa
1 | OCC(F)(F)C(F)(F)C(F)(F)C(F)(F)C(F)(F)C(F)(F)C(F)(F)C(F)(F)C(F)(F)C(F)F | not readily biodegradable | – | – | – | – | – | – | –
2 | CC1CCc2ccccc2C1 (stereo not drawn) | – | 221 °C | -43.1 °C | – | – | – | – | –
3 | FC(F)F | – | -82.1 °C | -155 °C | -1.02 | 4.55 | – | – | –
4 | CCN(CC)CCOc1ccc(C(O)(Cc2ccc(Cl)cc2)c2ccc(C)cc2)cc1 (stereo not drawn) | – | – | 103 °C | – | – | – | – | –
5 | FCC1CO1 (stereo not drawn) | – | 85.5 °C | – | – | – | – | – | –
6 | NCC[C@H](O)C(=O)N[C@@H]1C[C@H](N)[C@@H](O[C@H]2O[C@H](CN)[C@@H](O)[C@H](O)[C@H]2O)[C@H](O)[C@H]1O[C@H]1O[C@H](CO)[C@@H](O)[C@H](N)[C@H]1O | – | – | 204 °C | – | – | – | – | –
7 | Brc1cccc(-c2ccccc2)c1 | – | 300 °C | – | – | – | – | – | –
8 | CC(=O)[C@H]1CC[C@H]2[C@@H]3CC[C@@H]4CC(=O)CC[C@]4(C)[C@H]3CC[C@]12C | – | – | 123 °C | – | – | – | – | –
9 | Cn1sc(Cl)cc1=O | not readily biodegradable | – | – | – | – | – | – | –
10 | C=C1C2CCC(C2)C1(C)C (stereo not drawn) | not readily biodegradable | 160 °C | 51.6 °C | – | 0.399 | – | – | –
11 | Cc1ccc2nc(C)[nH]c2c1 | – | 350 °C | 203 °C | – | – | – | – | –
12 | Cc1ccc(CCN)cc1 | – | 214 °C | – | – | – | – | – | –
13 | c1ccc2c(c1)Nc1ccccc1S2 | not readily biodegradable | 371 °C | 188 °C | – | – | – | – | –
14 | CCC(=O)C(C)CC (stereo not drawn) | – | 134 °C | – | – | – | – | – | –
15 | Clc1cccc(Br)c1Cl | – | 245 °C | 60 °C | – | – | – | – | –
16 | CCCC(=O)Nc1c(I)cc(I)c(CC(CC)C(=O)[O-])c1I.[Na+] (stereo not drawn) | – | – | 209 °C | – | – | – | – | –
17 | CC(C)(C)c1cc(C(C)(C)C)c(O)c(C(C)(C)C)c1 | not readily biodegradable | 278 °C | 131 °C | – | -3.18 | – | – | –
18 | CCCC1CC1 | – | 69.1 °C | – | – | – | – | – | –
19 | Cc1c2ccccc2cc2ccc3ccccc3c12 | – | – | 138 °C | – | – | – | – | –
20 | CC(C)(S)[C@@H](N)C(=O)O | – | – | 198 °C | – | – | – | – | –
21 | CC(=O)Nc1cccc(Cl)c1 | – | – | 80 °C | – | – | 1.86 | – | –
22 | CCCC(=O)N(CC)CC | – | 206 °C | – | – | – | – | – | –
23 | COc1cccc(C(=O)O)c1O | – | – | 151 °C | – | – | – | – | –

Row | Structure (SMILES) | ready biodegradability | boiling point | melting point | log10 Henry constant (atm·m³/mol) | log10 vapour pressure (mmHg) | log10 Koc (L/kg) | log10 biodegradation half-life (days) | log10 Koa
24 | C=CCCCCCCCCCO | – | 250 °C | -2 °C | – | – | – | – | –
25 | O=[N+]([O-])c1c(F)c(F)c(F)c(F)c1F | – | 160 °C | – | – | – | – | – | –
26 | COC(=O)c1ccc(C(=O)OC)cc1 | readily biodegradable | 288 °C | 141 °C | – | -2 | – | – | –
27 | CCCCCCCCCCCCCCCC(=O)OC[C@H](O)[C@H]1OC(=O)C(O)=C1O | – | – | 116 °C | – | – | – | – | –
28 | Cn1ccccc1=O | – | 250 °C | 31 °C | – | – | – | – | –
29 | Oc1ccc2cccc(O)c2c1 | – | – | 180 °C | – | – | – | – | –
30 | COc1cc2c(c3oc(=O)c4c(c13)CCOC4=O)C1C=COC1O2 (stereo not drawn) | – | – | 245 °C | – | – | – | – | –
31 | COCC(O)COC | – | 169 °C | – | – | – | – | – | –
32 | Cl.ClCCN(Cc1ccccc1)Cc1ccccc1 | – | – | 192 °C | – | – | – | – | –
33 | Cc1cc(Br)ccc1O | – | 235 °C | 64.7 °C | – | – | – | – | –
34 | Cc1c(C)c([N+](=O)[O-])c(C)c(C)c1[N+](=O)[O-] | – | – | 212 °C | – | – | – | – | –
35 | CCCCCCCCCCCCCCCCCCCCCC | readily biodegradable | 369 °C | 44.4 °C | – | -5.89 | – | 2.1 | –
36 | c1ccc2c(c1)c(Cc1cn(CN3CCCCC3)c3ccccc13)cn2CN1CCCCC1 | – | – | 138 °C | – | – | – | – | –
37 | O=CC1CCCCC1 | – | 159 °C | – | – | – | – | – | –
38 | O=C1CCCCCCCCCC1 | – | – | – | – | -1.31 | – | – | –
39 | CN1CCN(C(=O)OC2c3nccnc3C(=O)N2c2ccc(Cl)cn2)CC1 (stereo not drawn) | – | – | 178 °C | – | – | – | – | –
40 | COc1cc(C#N)cc(OC)c1OC | – | – | 93.8 °C | – | – | – | – | –
41 | Clc1cccc(-c2cc(Cl)c(Cl)cc2Cl)c1 | – | – | – | -4 | – | – | – | –
42 | N#CCCCC#N | – | 286 °C | -29 °C | – | -2.08 | – | – | –
43 | O=C1C(Cl)=C(Cl)C(=O)c2ccccc21 | not readily biodegradable | – | 195 °C | – | -5.96 | 3.98 | – | –
44 | CCCCOP(=O)(O)OCCCC | not readily biodegradable | – | -13 °C | – | – | – | – | –
45 | OCCCC(F)(F)F | – | 125 °C | – | – | – | – | – | –
46 | c1ccc2c(c1)ccc1[nH]c3ccccc3c12 | – | 448 °C | 134 °C | – | – | – | – | –

Row | Structure (SMILES) | ready biodegradability | boiling point | melting point | log10 Henry constant (atm·m³/mol) | log10 vapour pressure (mmHg) | log10 Koc (L/kg) | log10 biodegradation half-life (days) | log10 Koa
47 | CCN(CC)CC(O)CN (stereo not drawn) | – | 223 °C | – | – | – | – | – | –
48 | NC[C@H](O)[C@@H](O)[C@@H](O)[C@H](O)CO | – | – | 127 °C | – | – | – | – | –
49 | COc1cc(NS(C)(=O)=O)ccc1Nc1c2ccccc2nc2ccccc12 | – | – | 235 °C | – | – | – | – | –
50 | CCC=CC(C)(C)C | – | 103 °C | – | – | – | – | – | –
51 | Clc1ccccc1-c1ccccc1Cl | not readily biodegradable | – | 61.5 °C | -3.64 | -2.56 | 3.92 | – | 7.18
52 | CCCC(C)CC(C)C (stereo not drawn) | – | 133 °C | – | – | – | – | 0.778 | –
53 | CCC(C(C)=O)C(C)=O | – | 178 °C | – | – | – | – | – | –
54 | CC(=O)OC(C)=O | – | 140 °C | -73 °C | – | 0.708 | – | – | –
55 | O=C(c1cc(O)c(O)c(O)c1)c1ccc(O)c(O)c1O | – | – | 270 °C | – | – | – | – | –
56 | C[C@]12COC(=O)C[C@@H]1CC[C@@H]1[C@@H]2CC[C@@]2(C)[C@H]1CC[C@]2(C)O | – | – | 236 °C | – | – | – | – | –
57 | C=CCSCC=C | – | 139 °C | -85 °C | – | 0.965 | – | – | –
58 | CCCCCCCCCCCCCC[N+](C)(C)C.[Br-] | – | – | 248 °C | – | – | – | – | –
59 | Fc1cccc2[nH]nnc12 | – | – | – | – | – | 1.87 | – | –
60 | Brc1ccccc1Oc1ccccc1 | – | – | – | – | – | – | – | 7.24
61 | CCC(=O)OCCc1ccccc1 | – | 238 °C | – | – | – | – | – | –
62 | CC(=O)OCCO | – | 188 °C | – | – | – | – | – | –
63 | COc1ccc(CC=O)cc1 | – | 256 °C | – | – | – | – | – | –
64 | CCC(C)ON=O (stereo not drawn) | – | 68.5 °C | – | – | – | – | – | –
65 | CC(=O)[O-].[K+] | – | – | 292 °C | – | – | – | – | –
66 | C[C@H]1CCC(=O)N1 | – | 248 °C | 43 °C | – | – | – | – | –
67 | CCCCCCCCCCCCCCCCCC(=O)NCCNC(=O)CCCCCCCCCCCCCCCCC | not readily biodegradable | – | – | – | – | – | – | –
68 | O=Cc1ccc(O)cc1 | readily biodegradable | 310 °C | 117 °C | -9.29 | -3.95 | – | – | –
69 | O=C(O)c1ccc(F)c(F)c1 | – | – | 123 °C | – | – | – | – | –

Row | Structure (SMILES) | ready biodegradability | boiling point | melting point | log10 Henry constant (atm·m³/mol) | log10 vapour pressure (mmHg) | log10 Koc (L/kg) | log10 biodegradation half-life (days) | log10 Koa
70 | CON(C)C(=O)Nc1ccc(Cl)cc1 | – | – | 81.5 °C | – | -3.82 | 2.1 | – | –
71 | CC(C)(C)c1cc(C(C)(C)C)cc(C(C)(C)C)c1 | not readily biodegradable | – | – | – | – | – | – | –
72 | Cc1cnc2c(C(=O)O)c(Cl)ccc2c1 | – | – | 244 °C | – | – | – | – | –
73 | CC1(C)C2CC3OC3(C)C1C2 (stereo not drawn) | – | 185 °C | – | – | -0.0872 | – | – | –
74 | CCCOc1ccc2[nH]c(NC(=O)OC)nc2c1 | – | – | 230 °C | – | – | – | – | –
75 | CC(C)OC(=O)[C@H](C)N(C(=O)c1ccccc1)c1ccc(F)c(Cl)c1 | – | – | 78.5 °C | – | – | – | – | –
76 | O=C(NC(=O)c1c(F)cccc1F)Nc1ccc(CO/N=C(\c2ccc(Cl)cc2)C2CC2)cc1 | – | – | 144 °C | – | – | – | – | –
77 | CCOC(=O)Cc1[nH]nc2ccc(Cl)cc12 | – | – | 77 °C | – | – | – | – | –
78 | CCC(C)(CC)C(=O)O | – | 207 °C | – | – | – | – | – | –
79 | Clc1cc(Cl)c2cc(Cl)cc(Cl)c2c1 | – | – | 180 °C | – | – | – | – | 7.9
80 | CC(CC(C)(C)C)CC(C)(C)C | – | 178 °C | -67 °C | – | – | – | – | –
81 | CCCCCCO | readily biodegradable | 158 °C | -44.6 °C | -4.77 | -0.0325 | – | – | –
82 | S=C1NCCN1 | not readily biodegradable | 347 °C | 203 °C | – | – | – | – | –
83 | Clc1cc(Cl)c2oc3cc(Cl)c(Cl)cc3c2c1 | – | – | 202 °C | – | -7.71 | – | – | –
84 | CC(C(=O)O)c1ccc(C2CCC/C(=N\O)C2)cc1 (stereo not drawn) | – | – | 178 °C | – | – | – | – | –
85 | CC(C)(C)OC(=O)C(F)(F)F | – | 83 °C | – | – | – | – | – | –
86 | CC(C)OC(=O)C(C)(C)Oc1ccc(C(=O)c2ccc(Cl)cc2)cc1 | – | – | 80.5 °C | – | – | – | – | –
87 | CCC(=O)OCC(C)C | – | 137 °C | -71.4 °C | – | 0.811 | – | – | –
88 | O=C1OS(=O)(=O)c2ccccc21 | – | – | 130 °C | – | – | – | – | –
89 | Cc1cc[nH]c(=O)c1 | – | 308 °C | 130 °C | – | – | – | – | –

Same assay, conditions: fish

Row | Structure (SMILES) | log10 BCF | log10 biotransformation half-life (days)
90 | C=C1C2CCC(C2)C1(C)C (stereo not drawn) | 2.98 | 0.96
91 | c1ccc2c(c1)Nc1ccccc1S2 | 2.55 | 0.04
92 | CC(C)(C)c1cc(C(C)(C)C)c(O)c(C(C)(C)C)c1 | 4.14 | 1.81
93 | CON(C)C(=O)Nc1ccc(Cl)cc1 | 1.15 | –
94 | CC(C)(C)c1cc(C(C)(C)C)cc(C(C)(C)C)c1 | 4.36 | 2.7
95 | CC(CC(C)(C)C)CC(C)(C)C | 2.94 | 0.72
96 | S=C1NCCN1 | 0.26 | –
